Measured values published in patent US5869492A, “Condensed thiazole derivatives, having 5-HT receptor affinity” (priority 1995, dated 1999).
Counter-ions that a name gives are not always drawn.

These molecules were tested against T1, 5-hydroxytryptamine (5-HT) reuptake sites (Rattus norvegicus, UniProt P31652) (assay: [3H]5-HT uptake into rat frontal cortical synaptosomes). Conditions: not given.
T1 construct: Frontal cortical tissue from the brains of male Sprague-Dawley rats; from tissue; host or cells: crude frontal cortical synaptosomes of male Sprague-Dawley rats (Charles River)
T1 sequence (P31652 whole entry): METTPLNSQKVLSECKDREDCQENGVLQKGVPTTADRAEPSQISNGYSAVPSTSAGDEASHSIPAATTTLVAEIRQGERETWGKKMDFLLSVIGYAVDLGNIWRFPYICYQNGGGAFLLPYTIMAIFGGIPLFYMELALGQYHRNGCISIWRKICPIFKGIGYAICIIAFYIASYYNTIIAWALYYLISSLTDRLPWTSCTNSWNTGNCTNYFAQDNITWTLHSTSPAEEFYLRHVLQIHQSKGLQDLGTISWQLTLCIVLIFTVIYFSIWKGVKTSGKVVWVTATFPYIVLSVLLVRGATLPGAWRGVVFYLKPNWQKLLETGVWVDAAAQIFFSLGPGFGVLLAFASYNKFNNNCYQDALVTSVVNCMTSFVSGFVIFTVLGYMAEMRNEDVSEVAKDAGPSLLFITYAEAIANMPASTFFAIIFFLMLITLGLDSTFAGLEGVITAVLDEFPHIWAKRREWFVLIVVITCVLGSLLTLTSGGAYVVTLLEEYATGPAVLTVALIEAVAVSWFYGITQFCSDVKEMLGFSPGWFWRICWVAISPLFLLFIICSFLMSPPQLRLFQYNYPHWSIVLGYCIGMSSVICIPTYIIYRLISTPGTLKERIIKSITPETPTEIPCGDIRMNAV
Type: biochemical
Protocol: Frontal cortical tissue from the brains of male Sprague-Dawley rats (Charles River; weight range 150-250 g) was homogenised in ice-cold 0.32M sucrose (1:10 w/v) using a motor driven teflon pestle (difference in diameter between mortar and pestle 0.5 mm). Nuclei and cell debris were removed by centrifugation at 1,500 g at 4° C. for 10 minutes. The pellet (P1) was discarded and the supernatant centrifuged at 30,000 g at 4° C. for 10 minutes. The crude synaptosomal pellet (P2) was resuspended in Krebs-Henseleit buffer (equivalent to 8.3 mg wet weight of tissue/ml).
Crude synaptosomes were incubated in a shaking water bath at 37° C. for 15 minutes. Aliquots (150 μl; equivalent to 1.25 mg wet weight of tissue/tube) were then added to tubes containing 275 μl of Krebs-Henseleit buffer and 50 μl of Krebs-Henseleit buffer (total uptake) or 50 μl of test compound (at a single concentration of 10^-6 M or at 10 concentrations ranging from 10^-11 -10^-3 M) or 50 μl of zimeldine (10^-5 M; non-specific uptake). Uptake was initiated by the addition of 25 μl of freshly prepared [^3 H]5-HT (2 nM), followed by vortexing, and was continued for 5 minutes at 37° C. in the shaking water bath. Uptake was terminated by filtration under vacuum through Skatron 11734 filters using a Skatron cell harvester. Filters were then washed with 8 ml ice-cold saline. The scored filter paper discs were punched into vials, scintillation fluid added and radioactivity determined by liquid scintillation counting.
For both the 5-HT uptake and noradrenaline uptake tests, the percentage inhibition of specific uptake of the tritiated ligand was calculated for the single concentration (10^-6 M) of test compound. Inhibition curves were then produced for those compounds which inhibited ≥50% of specific uptake of the tritiated ligand at 10 ^-6 M using a range of concentrations of test compound. The concentration which gave 50% inhibition of specific uptake (IC50) was obtained from the curve. The inhibition constant (Ki) was then calculated using the formula [formula] in which [ligand] is the concentration of tritiated ligand used and Km is the affinity of the uptake site for the ligand.
`C1=C(c2csc3ccccc23)N2CCN=C2S1` [Example 1, 3-(benzo[b]thiophen-3-yl)-5,6-dihydroimidazo[2,1-b]thiazole monohydrobromide dihydrate] was tested, and the Ki was 12.7 nM.
With `C1=C(c2coc3ccccc23)N2CCN=C2S1` [Example 3, 3-(benzo[b]furan-3-yl)-5,6-dihydroimidazo[2,1-b]thiazole monohydrobromide monohydrate] the Ki was 84 nM.
Work on `Clc1ccc2scc(C3=CSC4=NCCN34)c2c1` [Example 5, 3-(5-chlorobenzo[b]thiophen-3-yl)-5,6-dihydroimidazo[2,1-b]thiazole monohydrobromide] yielded a Ki of 8.7 nM.
Molecule `COc1ccc2scc(C3=CSC4=NCCN34)c2c1` [Example 6, 3-(5-methoxybenzo[b]thiophen-3-yl)-5,6-dihydroimidazo[2,1-b]thiazole monohydrobromide] has a Ki of 22 nM.
`Fc1ccc2scc(C3=CSC4=NCCN34)c2c1` [Example 7, 3-(5-fluorobenzo[b]thiophen-3-yl)-5,6-dihydroimidazo[2,1-b]thiazole monohydrobromide] was tested, and the Ki was 36 nM.
`N#Cc1ccc2scc(C3=CSC4=NCCN34)c2c1` [Example 8, 3-(5,6-dihydroimidazo[2,1-b]thiazol-3-yl)benzo[b]thiophen-5-carbonitrile monohydrobromide] showed a Ki of 530 nM.

Same assay, conditions: [3H]5-HT 2 nM, rat frontal cortical synaptosomes; mean of three determinations unless marked (* two); read-out: 5-HT uptake Ki
`C1=C(c2csc3ccccc23)N2CCCN=C2S1` [Example 2, 3-(benzo[b]thiophen-3-yl)-6,7-dihydro-5H-thiazolo[3,2-2a]pyrimidine] showed a Ki of 305 nM.
In the case of `C1=C(c2coc3ccccc23)N2CCCN=C2S1` [Example 4, 3-(benzo[b]furan-3-yl)-6,7-dihydro-5H-thiazolo[3,2-a]pyrimidine], the Ki is reported as 881 nM.

The molecules below were run against T2, 5-HT1A receptors (Rattus norvegicus, UniProt P19327) (assay: [3H]8-OH-DPAT binding to 5-HT1A receptors in rat hippocampal membranes). Conditions: [3H]8-OH-DPAT 2 nM, rat hippocampal membranes; mean of three determinations unless marked.
T2 construct: Hippocampal tissue from the brains of male Sprague-Dawley rats; from tissue; host or cells: hippocampal membranes of male Sprague-Dawley rats (Charles River)
T2 sequence (P19327 1-422): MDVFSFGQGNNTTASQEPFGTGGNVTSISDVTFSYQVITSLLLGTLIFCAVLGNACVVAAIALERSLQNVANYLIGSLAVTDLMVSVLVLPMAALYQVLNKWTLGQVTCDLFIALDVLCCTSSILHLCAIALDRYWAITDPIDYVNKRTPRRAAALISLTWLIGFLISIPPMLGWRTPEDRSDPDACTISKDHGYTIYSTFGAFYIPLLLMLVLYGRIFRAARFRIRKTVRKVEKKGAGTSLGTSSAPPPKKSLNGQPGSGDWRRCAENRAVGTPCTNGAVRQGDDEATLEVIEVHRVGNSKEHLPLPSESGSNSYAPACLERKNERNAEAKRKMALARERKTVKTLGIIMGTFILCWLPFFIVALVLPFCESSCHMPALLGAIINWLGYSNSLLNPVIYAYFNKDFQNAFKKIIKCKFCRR
Protocol: Hippocampal tissue from the brains of male Sprague-Dawley rats (Charles River; weight range 150-250 g) was homogenised in ice-cold 50 mM Tris-HCl buffer (pH 7.7 when measured at 25° C., 1:40 w/v) and centrifuged at 30,000 g at 4° C. for 10 minutes. The pellet was rehomogenised in the same buffer, incubated at 37° C. for 10 minutes and centrifuged at 30,000 g at 4° C. for 10 minutes. The final pellet was resuspended in 50 mM Tris-HCI buffer (pH 7.7) containing 4 mM CaCl2, 0.1% L-ascorbic acid and 10 μM pargyline hydrochloride (equivalent to 6.25 mg wet weight of tissue/ml) and used immediately in the binding assay.
Aliquots (400 μl; equivalent to 2.5 mg wet weight of tissue/tube) of this membrane preparation were added to tubes containing [^3 H]8-hydroxy-2-(dipropylamino)tetralin ([^3 H]8-OH-DPAT; 50 μl; 2 nM) and distilled water (50 μl; total binding) or 5-HT (50 μl; 10 μM; non-specific binding) or test compound (50 μl; at a single concentration of 10^-6 M or at 10 concentrations ranging from 10^-11 -10^-3 M) and incubated at 25° C. for 30 minutes. The incubation was terminated by rapid filtration under vacuum through Skatron 11734 filters using a Skatron Cell Harvester. Filters were washed with ice-cold 50 mM Tris-HCl buffer, pH 7.7 (at 25° C., wash setting 9,9,0) and dried. The scored filter paper discs were punched out into vials, scintillation fluid added and radioactivity determined by liquid scintillation counting.
The percentage displacement of specific binding of the tritiated ligand was calculated for the single concentration (10^-6 M) of test compound. Displacement curves were then produced for those compounds which displaced ≥50% of specific binding of the tritiated ligand at 10^-6 M using a range of concentrations of the compound. The concentration which gave 50% inhibition of specific binding (IC50) was obtained from the curve. The inhibition coefficient Ki was then calculated using the formula [formula] in which [ligand] is the concentration of the tritiated ligand used and KD is the equilibrium dissociation constant for the ligand.
`C1=C(c2csc3ccccc23)N2CCN=C2S1` [Example 1, 3-(benzo[b]thiophen-3-yl)-5,6-dihydroimidazo[2,1-b]thiazole monohydrobromide dihydrate] was tested, and the Ki was 81 nM.
Work on `C1=C(c2csc3ccccc23)N2CCCN=C2S1` [Example 2, 3-(benzo[b]thiophen-3-yl)-6,7-dihydro-5H-thiazolo[3,2-2a]pyrimidine] yielded a Ki of 340 nM.
Work on `C1=C(c2coc3ccccc23)N2CCN=C2S1` [Example 3, 3-(benzo[b]furan-3-yl)-5,6-dihydroimidazo[2,1-b]thiazole monohydrobromide monohydrate] yielded a Ki of 118 nM.
`C1=C(c2coc3ccccc23)N2CCCN=C2S1` [Example 4, 3-(benzo[b]furan-3-yl)-6,7-dihydro-5H-thiazolo[3,2-a]pyrimidine] gave a Ki of 321 nM.
Molecule `Clc1ccc2scc(C3=CSC4=NCCN34)c2c1` [Example 5, 3-(5-chlorobenzo[b]thiophen-3-yl)-5,6-dihydroimidazo[2,1-b]thiazole monohydrobromide] has a Ki of 40.7 nM.
In the case of `COc1ccc2scc(C3=CSC4=NCCN34)c2c1` [Example 6, 3-(5-methoxybenzo[b]thiophen-3-yl)-5,6-dihydroimidazo[2,1-b]thiazole monohydrobromide], the Ki is reported as 37.5 nM.
With `N#Cc1ccc2scc(C3=CSC4=NCCN34)c2c1` [Example 8, 3-(5,6-dihydroimidazo[2,1-b]thiazol-3-yl)benzo[b]thiophen-5-carbonitrile monohydrobromide] the Ki was 467 nM.

Same assay, conditions: single concentration 10^-6 M; [3H]8-OH-DPAT; * mean of two determinations; read-out: 5-HT1A % displacement at 10^-6 M
Molecule `Fc1ccc2scc(C3=CSC4=NCCN34)c2c1` [Example 7, 3-(5-fluorobenzo[b]thiophen-3-yl)-5,6-dihydroimidazo[2,1-b]thiazole monohydrobromide] has an inhibition at 1 µM of 66%.

Each molecule was assayed against T3, noradrenaline reuptake sites (Rattus norvegicus, UniProt Q63380) (assay: [3H]noradrenaline uptake into rat frontal cortical synaptosomes). Conditions: [3H]noradrenaline 10 nM, mean of three determinations unless marked (** one), read-out: NA uptake Ki.
T3 construct: Frontal cortical tissue from the brains of male Sprague-Dawley rats; from tissue; host or cells: crude frontal cortical synaptosomes of male Sprague-Dawley rats (Charles River)
T3 sequence (Q63380 1-617): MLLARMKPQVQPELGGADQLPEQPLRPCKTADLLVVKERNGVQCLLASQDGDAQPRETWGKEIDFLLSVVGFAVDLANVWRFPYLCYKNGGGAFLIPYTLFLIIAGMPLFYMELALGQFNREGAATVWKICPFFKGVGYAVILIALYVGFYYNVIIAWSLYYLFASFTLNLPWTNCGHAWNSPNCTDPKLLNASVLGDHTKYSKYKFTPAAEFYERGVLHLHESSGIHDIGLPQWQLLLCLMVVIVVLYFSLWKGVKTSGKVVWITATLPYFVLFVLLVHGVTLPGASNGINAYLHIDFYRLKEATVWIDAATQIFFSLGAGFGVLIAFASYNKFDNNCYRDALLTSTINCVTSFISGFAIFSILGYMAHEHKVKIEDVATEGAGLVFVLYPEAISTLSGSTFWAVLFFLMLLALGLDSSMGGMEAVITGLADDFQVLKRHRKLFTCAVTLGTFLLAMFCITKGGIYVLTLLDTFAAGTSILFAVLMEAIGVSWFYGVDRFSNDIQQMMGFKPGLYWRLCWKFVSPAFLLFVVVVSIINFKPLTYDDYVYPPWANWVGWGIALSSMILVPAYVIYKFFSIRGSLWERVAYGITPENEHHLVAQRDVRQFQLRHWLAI
Type: biochemical
Protocol: Frontal cortical tissue from the brains of male Sprague-Dawley rats (Charles River; weight range 150-250 g) was homogenised in ice-cold 0.32M sucrose (1:10 w/v) using a motor driven teflon pestle (difference in diameter between mortar and pestle 0.5 mm). Nuclei and cell debris were removed by centrifugation at 1,500 g at 4° C. for 10 minutes. The pellet (P1) was discarded and the supernatant centrifuged at 30,000 g at 4° C. for 10 minutes. The crude synaptosomal pellet (P2) was resuspended in Krebs-Physiological buffer (equivalent to 16.7 mg wet weight of tissue/ml).
Crude synaptosomes were incubated in a shaking water bath at 37° C. for 15 minutes. Aliquots (150 μl; equivalent to 2.5 mg wet weight of tissue/tube) were then added to tubes containing 275 μl of Krebs-Physiological buffer and 50 μl of Krebs-Physiological buffer (total uptake) or 50 μl of test compound (at a single concentration of 10^-6 M or 10 concentrations ranging from 10^-11 -10^-3 M) or 50 μl of desipramine (10^-5 M; non-specific uptake). Uptake was initiated by the addition of 25 μl of freshly prepared [^3 H]noradrenaline (10 nM), followed by vortexing and was continued for 5 minutes at 37° C. in the shaking water bath. Uptake was terminated by filtration under vacuum through Whatman GF/B filters using a Brandell cell harvester. Filters were then washed with 8 ml ice-cold saline. The scored filter paper discs were placed into vials, scintillation fluid added and radioactivity determined by liquid scintillation counting.
Molecule `C1=C(c2csc3ccccc23)N2CCN=C2S1` [Example 1, 3-(benzo[b]thiophen-3-yl)-5,6-dihydroimidazo[2,1-b]thiazole monohydrobromide dihydrate] has a Ki of 2.8 nM.
`C1=C(c2csc3ccccc23)N2CCCN=C2S1` [Example 2, 3-(benzo[b]thiophen-3-yl)-6,7-dihydro-5H-thiazolo[3,2-2a]pyrimidine] gave a Ki of 40 nM.
Work on `C1=C(c2coc3ccccc23)N2CCN=C2S1` [Example 3, 3-(benzo[b]furan-3-yl)-5,6-dihydroimidazo[2,1-b]thiazole monohydrobromide monohydrate] yielded a Ki of 41 nM.
Molecule `C1=C(c2coc3ccccc23)N2CCCN=C2S1` [Example 4, 3-(benzo[b]furan-3-yl)-6,7-dihydro-5H-thiazolo[3,2-a]pyrimidine] has a Ki of 116 nM.
With `Clc1ccc2scc(C3=CSC4=NCCN34)c2c1` [Example 5, 3-(5-chlorobenzo[b]thiophen-3-yl)-5,6-dihydroimidazo[2,1-b]thiazole monohydrobromide] the Ki was 13 nM.
Work on `COc1ccc2scc(C3=CSC4=NCCN34)c2c1` [Example 6, 3-(5-methoxybenzo[b]thiophen-3-yl)-5,6-dihydroimidazo[2,1-b]thiazole monohydrobromide] yielded a Ki of 51 nM.
With `Fc1ccc2scc(C3=CSC4=NCCN34)c2c1` [Example 7, 3-(5-fluorobenzo[b]thiophen-3-yl)-5,6-dihydroimidazo[2,1-b]thiazole monohydrobromide] the Ki was 5.4 nM.
